Patent US4368198A, “Cephalosporins” (Sumitomo Chemical Company Limited, priority 1976, dated 1983)
≈ marks a conversion by molar mass, not a printed value. Where two headings read alike, the source gives them in different places.

What was measured:
Type in all cases: cell-based
[1] = tested on: Staphylococcus aureus 209P; assay: antimicrobial activities in in vitro testing (MIC), Staphylococcus aureus 209P
Source text: (§1) The results of the antimicrobial activities of these compounds in in vitro testing in accordance with the recognized method are set forth in the Table below.

Escherichia coli NIHJ = assay: antimicrobial activities in in vitro testing (MIC), Escherichia coli NIHJ
[2] = tested on: Klebsiella pneumoniae 602; assay: antimicrobial activities in in vitro testing (MIC), Klebsiella pneumoniae 602
[3] = tested on: Pseudomonas aeruginosa 104; assay: antimicrobial activities in in vitro testing (MIC), Pseudomonas aeruginosa 104
Source text: as §1

[4] = tested on: Staphylococcus aureus FS 289; assay: antimicrobial activities in in vitro testing (MIC), Staphylococcus aureus FS 289; settings: FS289, read-out: Minimum Inhibitory Concentration
Source text: as §1

Proteus vulgaris HX 19 = assay: antimicrobial activities in in vitro testing (MIC), Proteus vulgaris HX 19; settings: HX19, read-out: Minimum Inhibitory Concentration
Source text: as §1

[5] = Staphylococcus aureus 209 P, read-out: antimicrobial activities
[6] = read-out: antimicrobial activities
[7] = Staphylococcus aureus 209P, in vitro, read-out: Minimum Inhibitory Concentration
[8] = in vitro, read-out: Minimum Inhibitory Concentration

SMILES: O=C(O)Cc1nnc(SCC2=C(C(=O)O)N3C(=O)C(NC(=O)[C@H](NC(=O)c4cnc5cccnc5c4O)c4ccc(O)cc4)[C@H]3SC2)s1 (stereo partly drawn) [Example 13, 7-[D-α-(4-Hydroxy-1,5-naphthyridine-3-carboxamido)-α-p-hydroxyphenylacetamido]-3-(5-carboxymethyl-1,3,4-thiadiazol-2-ylthiomethyl)-3-cephem-4-carboxylic Acid]
- MIC [1, 5]: 0.78 µg/mL (≈ 1.1 µM)
- MIC (Escherichia coli NIHJ; [6]): 1.56 µg/mL (≈ 2.2 µM)
- MIC [2, 6]: 1.56 µg/mL (≈ 2.2 µM)
- MIC [3, 6]: 3.13 µg/mL (≈ 4.41 µM)

SMILES: NC(=O)OCC1=C(C(=O)O)N2C(=O)C(NC(=O)[C@H](NC(=O)c3cnc4cncnc4c3O)c3ccc(O)cc3)C2SC1 (stereo partly drawn) [Example 11, 7-[D-α-(5,8-Dihydro-5H-8-oxopyrido[3,2-d]pyrimidine-7-carboxamido)-α-(p-hydroxyphenyl)acetamido]-3-carbamoyloxymethyl-3-cephem-4-carboxylic acid]
- MIC [1, 7]: 1.56 µg/mL (≈ 2.62 µM)
- MIC [4]: 6.25 µg/mL (≈ 10.5 µM)
- MIC (Escherichia coli NIHJ; [8]): 6.25 µg/mL (≈ 10.5 µM)
- MIC [2, 8]: 6.25 µg/mL (≈ 10.5 µM)
- MIC (Proteus vulgaris HX 19): 1.56 µg/mL (≈ 2.62 µM)
- MIC [3, 8]: 12.5 µg/mL (≈ 21 µM)

SMILES: NC(=O)OCC1=C(C(=O)O)N2C(=O)C(NC(=O)[C@H](NC(=O)c3cnccc3O)c3ccc(O)cc3)[C@H]2SC1 (stereo partly drawn) [Example 4, 7-[D-α-(4-Hydroxypyridine-3-carboxamido)-α-p-hydroxyphenylacetamido]-3-carbamoyloxymethyl-3-cephem-4-carboxylic Acid]
- MIC [1, 7]: 0.39 µg/mL (≈ 0.718 µM)
- MIC [4]: 3.13 µg/mL (≈ 5.76 µM)
- MIC (Escherichia coli NIHJ; [8]): 12.5 µg/mL (≈ 23 µM)
- MIC [2, 8]: 12.5 µg/mL (≈ 23 µM)
- MIC (Proteus vulgaris HX 19): 0.2 µg/mL (≈ 0.368 µM)
- MIC [3, 8]: 6.25 µg/mL (≈ 11.5 µM)

SMILES: NC(=O)OCC1=C(C(=O)O)N2C(=O)C(NC(=O)[C@H](NC(=O)c3cnc4cccnc4c3O)c3ccc(O)c(Cl)c3)C2SC1 (some centres unmarked) [Example 12]
- MIC [1, 7]: 1.56 µg/mL (≈ 2.48 µM)
- MIC [4]: 6.25 µg/mL (≈ 9.94 µM)
- MIC (Escherichia coli NIHJ; [8]): 3.13 µg/mL (≈ 4.98 µM)
- MIC [2, 8]: 1.56 µg/mL (≈ 2.48 µM)
- MIC (Proteus vulgaris HX 19): 0.78 µg/mL (≈ 1.24 µM)
- MIC [3, 8]: 6.25 µg/mL (≈ 9.94 µM)

SMILES: O=C(O)Cn1nnnc1SCC1=C(C(=O)O)N2C(=O)C(NC(=O)[C@H](NC(=O)c3cnc4cccnc4c3O)c3ccc(O)cc3)[C@H]2SC1 (stereo partly drawn) [Example 14, 7-[D-α-(4-Hydroxy-1,5-naphthyridine-3-carboxamido)-α-p-hydroxyphenylacetamido]-3-(1-carboxymethyl-1,2,3,4-tetrazol-5-ylthiomethyl)-3-cephem-4-carboxylic Acid]
- MIC [1, 5]: 0.78 µg/mL (≈ 1.12 µM)
- MIC (Escherichia coli NIHJ; [6]): 1.56 µg/mL (≈ 2.25 µM)
- MIC [2, 6]: 1.56 µg/mL (≈ 2.25 µM)
- MIC [3, 6]: 3.13 µg/mL (≈ 4.51 µM)

SMILES: NC(=O)OCC1=C(C(=O)O)N2C(=O)C(NC(=O)[C@H](NC(=O)c3cnc4cccnc4c3O)c3cccc(N)c3)C2SC1 (some centres unmarked) [Example 9]
- MIC [1, 7]: 0.78 µg/mL (≈ 1.31 µM)
- MIC [4]: 3.13 µg/mL (≈ 5.27 µM)
- MIC (Escherichia coli NIHJ; [8]): 1.56 µg/mL (≈ 2.63 µM)
- MIC [2, 8]: 1.56 µg/mL (≈ 2.63 µM)
- MIC (Proteus vulgaris HX 19): 0.78 µg/mL (≈ 1.31 µM)
- MIC [3, 8]: 6.25 µg/mL (≈ 10.5 µM)

SMILES: NC(=O)OCC1=C(C(=O)O)N2C(=O)C(NC(=O)[C@H](NC(=O)c3cnc4cccnc4c3O)c3ccc(O)cc3)[C@H]2SC1 (stereo partly drawn) [Example 7, 7-[D-α-(4-Hydroxy-1,5-naphthyridine-3-carboxamido)-α-(p-hydroxyphenyl)acetamido]-3-carbamoyloxymethyl-3-cephem-4-carboxylic acid]
- MIC [1, 7]: 0.78 µg/mL (≈ 1.31 µM)
- MIC [4]: 6.25 µg/mL (≈ 10.5 µM)
- MIC (Escherichia coli NIHJ; [8]): 3.13 µg/mL (≈ 5.26 µM)
- MIC [2, 8]: 1.56 µg/mL (≈ 2.62 µM)
- MIC (Proteus vulgaris HX 19): 0.78 µg/mL (≈ 1.31 µM)
- MIC [3, 8]: 6.25 µg/mL (≈ 10.5 µM)

SMILES: CSc1ncc2c(O)c(C(=O)N[C@@H](C(=O)NC3C(=O)N4C(C(=O)O)=C(COC(N)=O)CS[C@H]34)c3ccc(O)cc3)cnc2n1 (stereo partly drawn) [Example 10, 7-[D-α-(2-Methylthio-5,8-dihydro-5-oxopyrido[2,3-d]-pyrimidine-6-carboxamido)-α-(p-hydroxyphenyl)acetamido]-3-carbamoyloxymethyl-3-cephem-4-carboxylic acid]
- MIC [1, 7]: 0.78 µg/mL (≈ 1.22 µM)
- MIC [4]: 3.13 µg/mL (≈ 4.88 µM)
- MIC (Escherichia coli NIHJ; [8]): 6.25 µg/mL (≈ 9.74 µM)
- MIC [2, 8]: 6.25 µg/mL (≈ 9.74 µM)
- MIC (Proteus vulgaris HX 19): 1.56 µg/mL (≈ 2.43 µM)
- MIC [3, 8]: 6.25 µg/mL (≈ 9.74 µM)

SMILES: NC(=O)OCC1=C(C(=O)O)N2C(=O)C(NC(=O)[C@H](NC(=O)c3cnccc3O)c3ccccc3)[C@H]2SC1 (stereo partly drawn) [Example 6, 7-[D-α-(4-Hydroxypyridine-3-carboxamido)-α-phenylacetamido]-3-carbamoyloxymethyl-3-cephem-4-carboxylic acid]
- MIC [1, 7]: 0.39 µg/mL (≈ 0.739 µM)
- MIC [4]: 3.13 µg/mL (≈ 5.93 µM)
- MIC (Escherichia coli NIHJ; [8]): 12.5 µg/mL (≈ 23.7 µM)
- MIC [2, 8]: 12.5 µg/mL (≈ 23.7 µM)
- MIC (Proteus vulgaris HX 19): 0.2 µg/mL (≈ 0.379 µM)
- MIC [3, 8]: 12.5 µg/mL (≈ 23.7 µM)

SMILES: NC(=O)OCC1=C(C(=O)O)N2C(=O)C(NC(=O)[C@H](NC(=O)c3cnc4cccnc4c3O)c3ccccc3)[C@H]2SC1 (stereo partly drawn) [Example 8, 7-[D-α-(4-Hydroxy-1,5-naphthyridine-3-carboxamido)-α-phenylacetamido]-3-carbamoyloxymethyl-3-cephem-4-carboxylic acid]
- MIC [1, 7]: 0.78 µg/mL (≈ 1.35 µM)
- MIC [4]: 6.25 µg/mL (≈ 10.8 µM)
- MIC (Escherichia coli NIHJ; [8]): 3.13 µg/mL (≈ 5.41 µM)
- MIC [2, 8]: 1.56 µg/mL (≈ 2.7 µM)
- MIC (Proteus vulgaris HX 19): 0.78 µg/mL (≈ 1.35 µM)
- MIC [3, 8]: 6.25 µg/mL (≈ 10.8 µM)

SMILES: NC(=O)OCC1=C(C(=O)O)N2C(=O)C(NC(=O)[C@H](NC(=O)c3cnccc3O)c3cccc(N)c3)[C@H]2SC1 (stereo partly drawn) [Example 5, 7-[D-α-(4-Hydroxypyridine-3-carboxamido)-α-(m-aminophenyl)acetamido]-3-carbamoyloxymethyl-3-cephem-4-carboxylic acid]
- MIC [1, 7]: 0.39 µg/mL (≈ 0.719 µM)
- MIC [4]: 3.13 µg/mL (≈ 5.77 µM)
- MIC (Escherichia coli NIHJ; [8]): 6.25 µg/mL (≈ 11.5 µM)
- MIC [2, 8]: 12.5 µg/mL (≈ 23 µM)
- MIC (Proteus vulgaris HX 19): 0.2 µg/mL (≈ 0.369 µM)
- MIC [3, 8]: 6.25 µg/mL (≈ 11.5 µM)
